Where “and” joins values, the source holds several entries; their conditions need not be identical. Equal values may be shown once.
Assays:
[1] = test system: canine whipworm (Trichuris vulpis); test: Anthelmintic test in naturally infected dogs with mixed infections, E.P.G. on 7th day: canine whipworm (Test Examples A3, B3, C3, D3); assay type: in vivo
Protocol: (§1) Three dogs with mixed infections by canine whipworm (Trichuris vulpis), canine hookworm (Ancylostoma caninum) and canine roundworm (Toxocara canis) (naturally infected dogs) were employed in a group of two and a group of one.
(§2) The compound provided for the test was Compound No.Al, and 20 mg/Kg thereof was placed in a gelatin capsule per 1 Kg of body weight, and administered orally to the two dogs. As control, only a gelatin capsule was administered orally to the one dog.
(§3) Before administration and on the 7th day after administration, fecal matter testing was conducted to calculate the E.P.G., and the anthelmintic effect was judged by the changing of the E.P.G. to negative.
(§4) As control, only gelatin capsules were administered orally to the one dog.
(§5) The same method as in Test Example A3, but the compound provided for the test was Compound No. Cl. 30 mg/Kg of this compound was placed in a gelatin capsule per 1 Kg of body weight and administered orally to the two dogs. As control, only gelatin capsules were administered orally to the one dog.

[2] = test system: canine hookworm (Ancylostoma caninum); test: Anthelmintic test in naturally infected dogs with mixed infections, E.P.G. on 7th day: canine hookworm (Test Examples A3, B3, C3, D3); assay type: in vivo; conditions: dogs, 30 mg/Kg orally once, one value per dog
Protocol: as §1, §2, §3, §4, §5

[3] = test system: canine roundworm (Toxocara canis); test: Anthelmintic test in naturally infected dogs with mixed infections, E.P.G. on 7th day: canine roundworm (Test Examples A3, B3, C3, D3); assay type: in vivo; conditions: dogs, 30 mg/Kg orally once, one value per dog
Protocol: as §1, §2, §3, §4, §5

[4] = test system: Diphyllobothrium erinacei; test: Test of anthelmintic effect against Diphyllobothrium erinacei (tapeworm) in experimentally infected cats (Test Examples A5, B5, C5, D5)

## C=CCN(OC)C(C)=O [Compound B1, N-allyl-N-acetyl-O-methylhydroxylamine]
[1]; dogs with mixed infections (Trichuris vulpis, Ancylostoma caninum, Toxocara canis; statement covers all three), one administration of 30 mg/Kg
  anthelmintic effect: marked anthelmintic effect
[1]; dogs, 30 mg/Kg orally once, Trichuris vulpis, baseline, one value per dog, 30 mg/kg
  Change of E.P.G. Before administration: 5,100 E.P.G. and 2,700 E.P.G.
[1]; dogs, 30 mg/Kg orally once, Trichuris vulpis, one value per dog
  Change of E.P.G. 7th day: 0 E.P.G.
[2]; baseline, 30 mg/kg
  Change of E.P.G. Before administration: 4,500 E.P.G. and 8,700 E.P.G.
[2]
  Change of E.P.G. 7th day: 0 E.P.G.
[3]; baseline, 30 mg/kg
  Change of E.P.G. Before administration: 6,100 E.P.G. and 3,200 E.P.G.
[3]
  Change of E.P.G. 7th day: 0 E.P.G.
[4]; cats infected with 5 plerocercoids, 50 mg/Kg x 5 times orally, autopsy ten days after administration, one value per cat
  Number of worm bodies remaining in enteron: 0
[4]; cats, 50 mg/Kg x 5 orally, one value per cat (Table B7)
  Worm egg detection on 10th day after administration: -
[4]; cats, 5 continuous administrations of 50 mg/Kg
  anthelmintic effect: marked anthelmintic effects

— patent EP0103895A2, “Novel hydroxylamine derivatives, production and use thereof” (MEIJI SEIKA KABUSHIKI KAISHA, priority 1982, dated 1984)
